Values quoted from earlier work, collected in US6884429B2, “Medical devices incorporating deuterated rapamycin for controlled delivery thereof” (Isotechnika International Inc., priority 1997, dated 2005).

Settings: plasma and low-, and neuteral -pH buffers at 37° C.

half-life of degradation in solution: < 10 h
Compound: CO[C@H]1C[C@@H]2CC[C@@H](C)[C@@](O)(O2)C(=O)C(=O)N2CCCC[C@H]2C(=O)O[C@H]([C@H](C)C[C@@H]2CC[C@@H](O)[C@H](OC)C2)CC(=O)[C@H](C)/C=C(\C)[C@@H](O)[C@@H](OC)C(=O)[C@H](C)C[C@H](C)/C=C/C=C/C=C/1C [Rapamycin]
